One assay concerns the target T1, HER3 (Homo sapiens, UniProt P21860).
T1 construct: endogenous in cells; host or cells: OVCAR8
Nature of the assay: HER3/ERBB3 degradation (western blot, OVCAR8 cells). The assay is classed as cell-based. An outline of the steps: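 OVCAR8 cells received PROTAC from a 1000× stock for exposures >16 h, or a 2× stock for shorter ones. Lysates (Tris pH 8.0, deoxycholate, Triton X-100, protease/phosphatase inhibitors), 30 μg protein, were run on SDS-PAGE and immunoblotted overnight at 4 °C with ECL chemiluminescent detection and densitometric quantification.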

In another assay the target is BTK (Homo sapiens, UniProt Q06187). Nature of the assay: BTK degradation in NAMALWA cells (immunoblot). The assay is classed as cell-based. Details: host or cells: NAMALWA. As to conditions: NAMALWA cells. The method in brief: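 NAMALWA cells were cultured at 37° C in 5% CO2, and lysates were clarified and normalised for total protein by BCA. BTK was detected by immunoblot with primary antibodies at 1:1,000 and HRP secondaries at 1:10,000, using ECL chemiluminescence and densitometric band quantification.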
For orientation: In western blotting, separated proteins are transferred to a membrane and probed.

A further assay concerns the target T2, ITK (Homo sapiens, UniProt Q08881).
T2 sequence (Q08881 1-620): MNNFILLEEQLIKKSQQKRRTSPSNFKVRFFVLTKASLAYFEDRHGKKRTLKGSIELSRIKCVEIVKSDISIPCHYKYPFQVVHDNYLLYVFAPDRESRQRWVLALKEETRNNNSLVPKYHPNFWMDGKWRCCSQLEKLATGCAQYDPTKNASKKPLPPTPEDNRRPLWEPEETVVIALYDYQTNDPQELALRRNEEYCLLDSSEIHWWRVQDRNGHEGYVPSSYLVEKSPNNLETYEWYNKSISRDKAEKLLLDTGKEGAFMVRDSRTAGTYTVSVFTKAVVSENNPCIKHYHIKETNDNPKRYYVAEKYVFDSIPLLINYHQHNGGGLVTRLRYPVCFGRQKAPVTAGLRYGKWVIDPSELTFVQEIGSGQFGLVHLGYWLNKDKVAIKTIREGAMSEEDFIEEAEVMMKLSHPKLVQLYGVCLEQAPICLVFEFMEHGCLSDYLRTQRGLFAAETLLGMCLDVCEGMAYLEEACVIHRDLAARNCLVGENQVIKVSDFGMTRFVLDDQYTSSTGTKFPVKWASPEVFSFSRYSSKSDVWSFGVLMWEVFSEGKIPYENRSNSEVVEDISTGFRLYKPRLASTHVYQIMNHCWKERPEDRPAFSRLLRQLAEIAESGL
Nature of the assay: KINOMEscan competition binding assay, ITK. Set-up: purchased DiscoverX (KINOMEscan service). As to conditions: read-out: KINOMEscan percentage of control, ITK.

For the next assay, the target named is C481S BTK (Homo sapiens, UniProt Q06187, C481S). Nature of the assay: BTK and pBTK in primary CLL patient cells after ibrutinib relapse.

By DC50 is commonly meant the midpoint of the concentration-degradation curve.

“Also recorded” adds a separate entry of the source. A value given as a limit tells only on which side of the number the result lay.

Sequence of BTK (Q06187 whole entry): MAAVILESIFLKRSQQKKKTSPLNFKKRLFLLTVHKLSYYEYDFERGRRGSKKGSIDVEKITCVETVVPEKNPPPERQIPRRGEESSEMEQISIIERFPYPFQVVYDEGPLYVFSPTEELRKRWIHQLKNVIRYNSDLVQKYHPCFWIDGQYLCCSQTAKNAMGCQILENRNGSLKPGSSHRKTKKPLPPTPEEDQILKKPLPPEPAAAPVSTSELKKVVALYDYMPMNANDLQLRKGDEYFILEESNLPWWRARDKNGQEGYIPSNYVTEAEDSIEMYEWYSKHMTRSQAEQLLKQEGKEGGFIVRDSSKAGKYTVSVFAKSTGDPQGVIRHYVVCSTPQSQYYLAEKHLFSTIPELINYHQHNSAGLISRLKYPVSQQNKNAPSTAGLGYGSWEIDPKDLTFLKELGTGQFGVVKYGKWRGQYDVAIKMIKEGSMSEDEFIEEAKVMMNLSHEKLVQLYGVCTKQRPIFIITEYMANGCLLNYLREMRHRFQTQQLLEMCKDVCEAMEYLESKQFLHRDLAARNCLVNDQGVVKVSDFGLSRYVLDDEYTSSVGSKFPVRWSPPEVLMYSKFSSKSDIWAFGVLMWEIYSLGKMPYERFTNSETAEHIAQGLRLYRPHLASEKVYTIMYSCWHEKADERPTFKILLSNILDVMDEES
T1 sequence (P21860 20-1342): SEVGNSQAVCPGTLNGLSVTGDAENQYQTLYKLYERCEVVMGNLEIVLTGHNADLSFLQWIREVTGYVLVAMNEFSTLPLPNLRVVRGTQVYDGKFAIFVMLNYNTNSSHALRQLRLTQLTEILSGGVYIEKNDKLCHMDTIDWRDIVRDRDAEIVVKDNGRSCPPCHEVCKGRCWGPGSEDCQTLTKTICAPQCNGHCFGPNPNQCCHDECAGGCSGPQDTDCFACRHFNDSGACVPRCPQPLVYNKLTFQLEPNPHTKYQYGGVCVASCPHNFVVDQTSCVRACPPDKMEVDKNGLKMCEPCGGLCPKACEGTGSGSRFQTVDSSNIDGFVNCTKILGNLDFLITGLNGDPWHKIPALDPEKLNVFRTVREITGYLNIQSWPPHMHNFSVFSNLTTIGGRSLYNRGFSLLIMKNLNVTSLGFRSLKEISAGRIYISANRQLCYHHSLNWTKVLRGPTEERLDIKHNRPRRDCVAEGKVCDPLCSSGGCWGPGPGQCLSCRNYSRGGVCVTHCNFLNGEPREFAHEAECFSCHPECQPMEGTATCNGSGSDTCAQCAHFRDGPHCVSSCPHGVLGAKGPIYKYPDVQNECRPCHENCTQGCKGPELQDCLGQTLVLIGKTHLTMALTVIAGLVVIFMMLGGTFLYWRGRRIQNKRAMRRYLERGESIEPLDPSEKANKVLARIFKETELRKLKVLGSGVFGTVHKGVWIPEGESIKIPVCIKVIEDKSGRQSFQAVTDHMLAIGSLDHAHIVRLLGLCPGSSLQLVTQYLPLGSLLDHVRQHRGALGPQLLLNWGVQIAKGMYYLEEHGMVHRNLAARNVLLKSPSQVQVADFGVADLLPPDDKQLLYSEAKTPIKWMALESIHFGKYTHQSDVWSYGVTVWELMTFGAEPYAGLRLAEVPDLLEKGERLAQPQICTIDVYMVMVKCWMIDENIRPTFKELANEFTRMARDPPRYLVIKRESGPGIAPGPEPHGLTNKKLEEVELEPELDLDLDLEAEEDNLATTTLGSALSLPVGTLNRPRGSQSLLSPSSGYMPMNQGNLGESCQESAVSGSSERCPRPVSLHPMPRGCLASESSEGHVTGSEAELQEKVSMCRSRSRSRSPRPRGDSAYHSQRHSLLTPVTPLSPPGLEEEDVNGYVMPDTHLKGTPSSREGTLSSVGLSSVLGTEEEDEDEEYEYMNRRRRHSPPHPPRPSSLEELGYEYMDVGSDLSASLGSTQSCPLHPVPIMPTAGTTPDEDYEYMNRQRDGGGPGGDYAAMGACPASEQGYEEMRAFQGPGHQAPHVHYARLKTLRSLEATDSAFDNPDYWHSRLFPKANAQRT
Sequence of C481S BTK (Q06187 whole entry C481S): as the sequence (Q06187 whole entry) above, with C481S counted along it
Description for C481S BTK: The cell suspension was kept on ice and agitated every 10 minutes for 30 minutes, followed by centrifugation for 10 minutes at 4° C. The supernatant was then collected and frozen at −80° C. until quantification. Protein quantification was performed for each supernatant using the BCA method (Thermo Scientific). Protein from each sample was added to 2× or 6× Laemmli's Sample buffer as previously described (41). 50 μg of each sample and a protein molecular weight marker were loaded onto 10% polyacrylamide gels and electrophoresed. Transfer of the proteins and blocking of membranes were performed as previously described (40).
The blots were washed with TBS-T (Tris-buffered saline-0.05% Tween) three times for 10 minutes with constant agitation, then incubated with HRP-conjugated anti-rabbit or anti-mouse IgG (Santa Cruz Biotechnologies) diluted 1:5,000 in Blotto for 2 hours at 4° C. with constant agitation. Prior to development, the blots were again washed with TBS-T three times for 10 minutes with constant agitation. Blots were developed using chemiluminescent substrate (WesternBright by Advansta or SuperSignal by ThermoScientific) and X-ray film (GeneMate) was used to perform autoradiography. Quantification was performed on the protein bands using computer densitometry (AlphaView software).

Consider `Nc1ncnc2c1c(-c1ccc(Oc3ccccc3)cc1)nn2C1CCN(CCOCCOCC(=O)Nc2ccc3c(c2)C(=O)N(C2CCC(=O)NC2=O)C3=O)CC1` (centres unmarked) [Compound 102, 2-[2-[2-[4-[4-amino-3-(4-phenoxyphenyl)pyrazolo[3,4-d]pyrimidin-1-yl]-1-piperidyl]ethoxy]ethoxy]-N-[2-(2,6-dioxo-3-piperidyl)-1,3-dioxo-isoindolin-5-yl]acetamide], for which the “HER3 Degradation” value on HER3 is recorded as “No”. The ERBB3 degradation entry on HER3 (OVCAR8 cells) was “did not lead to ERBB3 degradation; also recorded: no significant degradation”. Besides, the “time at which BTK is fully degraded” value on BTK (250 nM) is 4 h. The “time after which half of the total BTK is degraded” value on BTK (250 nM, vs matched vehicle-treated time point, exponential fit) is “approximately 50 minutes”. Further, the “BTK degradation after pre-treatment with MLN-4924” value on BTK (MLN-4924 1 μM 2.5 h, then 250 nM PROTAC 4 h) is on record as “rescue of BTK levels”. Moreover, at BTK (concentration needed to degrade 50% of the total pool of BTK, read-out: DC50), the DC50 turned out to be 9.1 nM. The “BTK degradation after pre-treatment with epoxomicin” value on BTK (epoxomicin 1 μM 2.5 h, then 250 nM PROTAC 4 h) is on record as “rescue of BTK levels; also recorded: did not result in BTK degradation”. Further, the “BTK degradation after pre-treatment with excess ibrutinib” value at BTK (ibrutinib 25 μM 2.5 h, then 250 nM PROTAC 4 h) was “rescued BTK levels”. On BTK (maximal BTK degradation, at 250 nM), the Max was over 99%. For the same compound, the “BTK degradation after pre-treatment with excess pomalidomide” value at BTK (pomalidomide 25 μM 2.5 h, then 250 nM PROTAC 4 h) is recorded as “rescued BTK levels”. Moreover, at BTK (up to 2.5 μM, 24 h), the “hook-effect (increase in BTK levels at high PROTAC concentration)” value was “without observation and No and no significant increases in BTK levels and (No”. In addition, the remaining binding at 1 µM on ITK was over 80%. Further, at C481S BTK (after relapse (C481S BTK), 1 μM), the “reduction of active, Y223 phosphorylated BTK” value was “retained its ability to reduce the pool of active, Y223 phosphorylated BTK”. The “degradation of C481S BTK” value at C481S BTK (relapse primary patient sample, 1 μM 24 h) was “able to degrade”.

The values are drawn from US11028088B2, “Modulators of BTK proteolysis and methods of use” (Yale University, priority 2018, dated 2021).
